SMILES strings stand for the structures.

What all share (format): functional
For one assay, the system named is Candida albicans. In words: Antimicrobial activity against Candida albicans ATCC 66029 at 100 ug/well after 24 hrs at 30 degC by agar diffusion assay. As to conditions: ATCC 66029, 24 h, read-out: DIZ. For orientation: Agar diffusion results depend on both activity and mobility in agar.
The test system of the next assay is Escherichia coli. Put plainly: Antimicrobial activity against Escherichia coli ATCC 8739 at 100 ug/well after 24 hrs at 37 degC by agar diffusion assay. As to conditions: ATCC 8739, 24 h, read-out: DIZ.
Another assay concerns Staphylococcus aureus. Put plainly: Antimicrobial activity against Staphylococcus aureus ATCC 6538 at 100 ug/well after 24 hrs at 37 degC by agar diffusion assay. The note with it: ATCC 6538, 24 h, read-out: DIZ.

With `CCC(C)n1ncn(-c2ccc(N3CCN(c4ccc(OCC5COC(Cn6cncn6)(c6ccc(Cl)cc6Cl)O5)cc4)CC3)cc2)c1=O` (centres undefined) [ITRACONAZOLE], the zone of inhibition at 100 µg/disc with Candida albicans was 21 mm.
`NC[C@H]1O[C@H](O[C@H]2[C@H](O)[C@@H](O[C@H]3O[C@H](CO)[C@@H](O)[C@H](N)[C@H]3O)[C@H](N)C[C@@H]2N)[C@H](O)[C@@H](O)[C@@H]1O` [KANAMYCIN]: the zone of inhibition at 100 µg/disc was found to be 38 mm in the assay on Escherichia coli and 37 mm in the assay on Staphylococcus aureus.
Consider `CN1C(=N)N=C(Nc2nc(Cc3ccc4c(c3)OCO4)cn2C)C1=O` [CLATHRIDIMINE], for which the values for the zone of inhibition at 100 µg/disc in the assay with Escherichia coli, with Candida albicans and in the assay on Staphylococcus aureus were 15 mm, 24 mm and 0 mm, respectively.
`CN1C(=O)N=C(Nc2nc(Cc3ccc4c(c3)OCO4)cn2C)C1=O` [CLATHRIDINE]: the zone of inhibition at 100 µg/disc in the assay on Escherichia coli turned out to be 0 mm; in the assay on Candida albicans it was 18 mm; in the assay on Staphylococcus aureus it was 0 mm.

For the origin of these results see ChEMBL document CHEMBL1177750, “Cellular localization of clathridimine, an antimicrobial 2-aminoimidazole alkaloid produced by the Mediterranean calcareous sponge Clathrina clathrus” (2010).
